In US10166267B1, “Multi-component formulations for the treatment of cognitive decline including Alzheimer's disease” (priority 2010, dated 2019):

Columns and labels:
[1] = test system: primary chicken neurons; test: MTT cell viability assay on primary chicken neurons, components applied for forty-eight hours; format: cell-based; conditions: for effect on cell viability: 48 h
Protocol: Further tests were conducted to assess the neuroprotective effects of a number of the components previously disclosed herein at various concentrations on primary chicken neurons, individually and in select combinations. The study components were applied to test specimens obtained on embryonic day 8 in vitro (“DIV8”) for a period of forty-eight hours, after which, the test specimens were evaluated in accordance with MTT assay to determine cell viability.
One day old fertilized eggs were stored under appropriate conditions until the start of breeding. On embryonic day zero, eggs were transferred to a breeding incubator and maintained under turning at 37.8° C. and 55% humidity until embryonic day eight.
All cell culture experiments were carried out under sterile conditions and all procedures were performed in a cell culture unit with special cell culture equipment. Glassware, forceps ad/or scissors were sterilized prior to experiments. Stock chemical solutions were obtained sterile, and final solution and culture medium were prepared fresh in a laminar airflow cabinet.
Neurons were prepared as follows. DIV8 embryos were transferred to plastic dish and decapitated. Bother hemispheres were removed, collected, and cleaned from any loose tissue. Hemispheres were then mechanically disassociated and 4.8×10^4 cells per well in a 96-well plate, and each well was seeded with 160 μL.
The cell culture medium for chicken telencephalon neurons consists of DMEM with 4.5 grams glucose, 5% Nu Serum, 0.01% gentamycin, and 2 mM L-glutamine. Cultures are maintained at 37° C., 95% humidity and 5% CO2.
The study component(s) and vehicle controls (“VC”) were applied to chicken neurons at DIVE for forty-eight hours. The viability of the chicken neurons at DIV10 were determined according to an MTT cell viability assay.
MTT Cell Viability Assay: The viability of the chicken neurons were determined by MTT assay using a plate reader at 570 nanometers as described in SOP MET004. The assay measures the mitochondrial dehydrogenase activity which reduces yellow MTT to dark blue formazan crystals. As the reaction is catalyzed only in living cells, the assay is used to determine cell viability. MTT is added to each well at a concentration of 0.5 milligrams per milliliter. After two hours, the MTT containing medium is aspirated. Cells are lysed in 3% SDS and the formazan crystals are dissolved in isopropanol/hydrochloric acid. Optical density is measured with a plate-reader at a wavelength of 570 nanometers.
Cell survival rate is expressed as optical density, and values are calculated as a percentage of the vehicle control values, the vehicle control being 100%.

[2] = cited from earlier work

COc1cc(/C=C/C(=O)CC(=O)/C=C/c2ccc(O)c(OC)c2)ccc1O [Curcumin, curcumin]
protective effects, curcumin alone vs in combination with MSM/FDP ([1]; Part 3, curcumin applied alone): protective effects only in combinations with MSM/FDP but not when applied alone | effect on cell viability ([1]; curcumin 50, 20, 10 and 5 μM, vs vehicle): negative effects on cell viability | effect on cell viability ([1]; curcumin lowest concentration 0.01 μM, vs vehicle): positive influence on cell viability

C[S+](C)[O-] [DMSO, Dimethyl sulfoxide]
effect on cell viability ([1]; DMSO 5%, vs vehicle treated cells): toxic effects | effect on cell viability ([1]; DMSO, all other concentrations tested, vs vehicle treated cells): minor negative effect on cell viability | DMSO converted to MSM in the body [2]: approximately 15%

O=C(COP(=O)(O)O)[C@@H](O)[C@H](O)[C@H](O)COP(=O)(O)O [FDP, Fructose 1,6-diphosphate]
effect on cell viability ([1]; FDP highest concentrations 50, 10 and 5 mM): toxic effects | effect on cell viability ([1]; FDP, other applied concentrations): no significant effects

CS(C)(=O)=O [MSM, Methylsulfonylmethane]
concentration of MSM relative to DMSO achieving the same effects on cell viability ([1]; MSM 0.1 μM vs DMSO 12.8 μM in combinations): 128 times less concentrated | effects on cell viability in the combinations, MSM vs DMSO ([1]; MSM 0.0001 mM = 0.1 μM vs DMSO 12.8 μM = 0.0001%): same effects on cell viability | effect on cell viability ([1]; MSM highest concentration 50 mM): minor negative effect | tolerance by cells when applied alone ([1]; MSM vs DMSO, each applied alone): tolerated MSM better than DMSO | effect on cell viability ([1]; MSM, all other applied concentrations, increase seen at 1 and 0.01 mM): no or even a slight increase in cell viability

Oc1ccc(C=Cc2cc(O)cc(O)c2)cc1 [Resveratrol, resveratrol]
effect on cell viability ([1]; resveratrol 20, 10 and 5 μM, vs vehicle): positive effects on cell viability | effect on cell viability ([1]; resveratrol 50 and 100 μM, vs vehicle): toxic to cells | cell viability compared to resveratrol (20 μM) plus DMSO/FDP ([1]; resveratrol alone 20 μM): even better effects on cell viability
